According to patent publication US20260139254A1, “INTERFERING RNA FOR INHIBITING TOP1 GENE EXPRESSION AND USE THEREOF” (JENKEM TECHNOLOGY CO., LTD. (BEIJING), priority 2022, published 2026):

Assays:
TOP1 mRNA [1] = assay: Inhibitory effects of modified sequences of siTOP1-1604 on TOP1 mRNA in PC-3 cells; format: cell-based, human; conditions: PC-3, siRNA 50 nM, 48 h after transfection, Blank = 100.00
Method: PC-3 human prostate cancer cells were transfected with the modified siTOP1 according to the method in Example 2 at a siRNA working concentration of 50 nM. TOP1 mRNA levels were detected 48 h after the transfection. The control groups were Blank (Opti-MEM at the equal volume), Lipofectamine™ RNAiMAX (Lipo) transfection reagent, and the positive control unmodified siTOP-1604.

TOP1 mRNA [2] = assay: Inhibitory effect of siTOP1 on TOP1 mRNA in A375 cells (Lipofectamine RNAiMAX transfection, Q-PCR); format: cell-based, human; conditions: A375, siRNA 50 nM, 48 h after transfection
Method: • 1) On the day before transfection, A375 melanoma cells were seeded into a 24-well plate at 6×10^4 to 8×10^4 cells/well, the culture medium being 500 μL of DMEM containing 10% FBS and 1% Penicillin-Streptomycin, and the plate was placed in an incubator with 5% CO2 at 37° C. for 24 h to allow the cells to adhere to the wall. Three replicate wells were made for each group. • 2) On the day of transfection, the culture medium was changed to 450 μL of DMEM culture medium without antibiotics (containing 10% FBS). • 3) The siRNAs were diluted with 25 μL of Opti-MEM culture medium; the siNC (the siNC (reference: O Sordet et al., 2008) having the target sequence of 5′-TTCTCCGAACGTGTCACGT-3′ (SEQ ID NO: 46)) at the same concentration was the negative control group; Lipofectamine™ RNAiMAX (Lipo) transfection reagent was diluted with another 25 μL of Opti-MEM culture medium and left to stand at room temperature for 5 min; and the two dilutions were uniformly mixed and left to stand at room temperature for 5 min. • 4) 50 μL of the mixed solution described above was added to each well to obtain a final transfection volume of 500 μL. and the working concentration of the siRNA was 50 nM. • 5) After the transfection, the cells were cultured for 48 h and then collected.
• 1) RNA was extracted using an Eastep™ Super total RNA extraction kit; 300 μL of RNA lysis solution and 300 μL of RNA diluent were added; and the mixture was uniformly mixed and then transferred to a 1.5 mL centrifuge tube. • 2) The mixture was centrifuged at 14000 g for 5 min, and the supernatant was carefully pipetted into a new 1.5 mL centrifuge tube. • 3) A 0.5-fold volume of absolute ethanol was added, and the mixture was uniformly mixed by allowing the tube to be repeatedly upside down 15-20 times. Subsequently, the mixture was transferred to a centrifuge column and centrifuged at 12000 g for 1 min. The filtrate was discarded. • 4) 600 μL of RNA wash buffer was added, and the mixture was centrifuged at 12000 g for 1 min. The filtrate was discarded. • 5) 50 μL of DNase I incubation buffer was added, followed by DNA digestion at room temperature for 15 min. • 6) 600 μL of RNA wash buffer was added, the mixture was centrifuged at 12000 g for 1 min, and the filtrate was discarded. This procedure was repeated once. • 7) The mixture was centrifuged at 14000 g for 2 min to remove the residual RNA wash buffer, and then the centrifuge column was placed in a collection tube. • 8) An appropriate amount of RNase-free H2O was added, and the mixture was left to stand at room temperature for 12 min and centrifuged at 14000 g for 1 min. The collected RNA was preserved at −70° C. for later use.
• 1) The mass and concentration of the RNA were detected using NanoDrop™, and an RNA template was prepared as follows: RNase-free H2O was added to 1 μg of RNA to a volume of 10 μL; the mixture was placed at 70° C. for 5 min and then placed in an ice bath for 5 min for later use. • 2) A reaction system was established according to Table 2:
• 3) The reaction system described above was uniformly mixed and centrifuged to collect the liquid at the bottom of a tube, and the mixture was subjected to the procedures of 25° C. for 5 min, 42° C. for 60 min, and 72° C. for 15 min, thereby giving the cDNA product. • 4) A Q-PCR system was prepared according to Table 3, and the level of TOP1 gene was detected:
GAPDH was used as an endogenous reference, and the sequences of the primers used for detection are as follows: […]

siTOP1-1604: siRNA targeting TOP1; target SEQ ID NO: 9, sense strand SEQ ID NO: 24, antisense strand SEQ ID NO: 39 (sense GUGUGGACAAGAUCCGGAAUU; antisense UUCCGGAUCUUGUCCACACUU; described as unmodified parent siRNA, further chemistry not given here)
Relative expression level, mean value (TOP1 mRNA [1]): 4.03 | Inhibition of TOP1 expression (TOP1 mRNA [2]): 94.0% | Relative expression level of gene, mean value (TOP1 mRNA [2]; Blank = 100.00, GAPDH reference): 5.97
